Measured values taken from US6124078A, “Photo-decoloring dye, a binder resin composition containing the same and photo-recording material” (Konica Corporation, priority 1998, dated 2000).

How the values were obtained:
Format in all cases: physicochemical
[1] = Absorption maximum and absorption coefficient in ethyl acetate
[2] = Storage stability of photo-recording material (60° C., 200 hours, light-shielded); details: (density after storage/initial density)×100, packed with black paper
Source text: The binder resin composition containing the photo-decoloring dye used for making sample 3-1 was coated on a polyethylenenaphthalate base having thickness of 4.0 μm by using a wire bar in a coating amount of 2.5 g/m^2 after drying so as to obtain a photo-recording material consisting of a photo-decoloring layer on the polyethylenenaphthalate film. On a back side of said polyethylenenaphthalate base was coated a nitrocellulose layer containing a silicone modified urethane resin (SP-2105, produced by Dainichiseika Co., Ltd.) as a sticking-preventing layer. Thus obtained sample is termed sample 4-1.
By replacing the photo-decoloring dye 7 used in sample 4-1 by such photo-decoloring dyes as described later, sample 4-2 to 4-16 were obtained. Both photo-decoloring ability and storage stability of these dyes were evaluated.
Photo-shielded samples by packing them with black paper were allowed to stand at 60° C. in a thermostatic oven for 200 hours. Storage stability was indicated as follows.
Storage stability=(density after storage/initial density)×100 (%)

[3] = Solubility of dye in binder resin composition (polyvinyl butyral / methyl ethyl ketone), precipitation after a day at 15° C.; details: binder resin composition: polyvinyl butyral resin (Esrex BX-1) 100 mg, methyl ethyl ketone 3.0 ml; stood a day at 15° C. shielded from light
Experimental: Mixing the following raw materials, a binder resin composition containing the photo-decoloring dye was prepared so as to obtain sample 3-1.
Photo-decoloring dye 7 0.3 mmol
Polyvinyl butyral resin (Esrex BX-1)
Methyl ethyl ketone 3.0 ml
Samples 3-2 to 3-12 were obtained in the same way in which sample 3-1 was obtained except replacing the photo-decoloring dye 7 by the following dyes described later. Solubility was evaluated by varying addition amount of each dye. The dyes except for comparative dyes show the photo-decoloring dyes according to the invention. The chemical structures of the comparative dyes A and B (these dyes are used in example 5) are shown below.
After preparing binder resin compositions in which addition amount of the photo-decoloring dyes was increased in serial turn, said binder resin compositions were aloowed to stand under the condition of shielding a light for a day at 15° C. When slight precipitation of the photo-decoloring dyes in said binder resin compositions was observed, the solubility of said photo-decoloring dyes was evaluated as unacceptable.
The solubility of the photo-decoloring dyes was evaluated based on the following criteria in response to the addition amount of said photo-decoloring dyes.
4: Precipitation was not observed in an addition amount of not less than 0.9 mmol.

| εmax [1] | λmax [1] | Storage stability [2] | Compound | Solubility [3] |
| --- | --- | --- | --- | --- |
| 94800 | 543 nm |  | CCCCCCCCCCCCS(=O)(=O)CCCc1nnc2c(=Cc3cc(Cl)c(O)c(Cl)c3)c(C(C)(C)C)nn12 [compound 78] |  |
|  |  | 80% | CCN(CC)c1ccc(N=C2C(=O)N(c3ccccc3)N=C2C)cc1 [D] |  |
|  |  | 75% | CCCCCCCCCCCCOc1ccc(S(=O)(=O)NCC(C)(C)c2nnc3n2N=C(C(C)(C)C)C3=Nc2cc(Cl)c(O)c(Cl)c2)cc1 [compound 13] | 3 (Slight precipitation was observed in an addition amount of not less than 0.6 to less than 0.9 mmol.) |
|  |  | 85% | CCCCCCCCCCCCC(Oc1ccc(OC(C)=O)c(C(C)(C)C)c1)C(=O)NCCc1nnc2n1N=C(C)C2=Nc1cc(Cl)c(O)c(Cl)c1 (stereo not drawn) [compound 17] | 4 (Precipitation was not observed in an addition amount of not less than 0.9 mmol.) |
| 93700 | 556 nm | 88% | CCCCCCCCCCCCS(=O)(=O)CCCc1nnc2n1N=C(C(C)(C)C)C2=Nc1cc(Cl)c(O)c(Cl)c1 [compound 7] | 4 (Precipitation was not observed in an addition amount of not less than 0.9 mmol.) |
| 105300 | 540 nm | 80% | CCCCCCCCCCCCS(=O)(=O)CCCc1nnc2c(=Cc3cc(Cl)c(O)c(Cl)c3)c(C(C)(C)C)nn12 [compound 58] | 4 (Precipitation was not observed in an addition amount of not less than 0.9 mmol.) |
|  |  | 20% | CCCCc1nnc2c(=Cc3cc(Cl)c(O)c(Cl)c3)c(C(C)(C)C)nn12 [B] | 2 (Slight precipitation was observed in an addition amount of not less than 0.3 to less than 0.6 mmol.) |
|  |  | 80% | CCC(Oc1ccc(C(C)(C)CC)cc1C(C)(C)CC)C(=O)NCCC(C)c1nnc2n1N=C(C(C)(C)C)C2=Nc1cc(Cl)c(O)c(Cl)c1 (stereo not drawn) [compound 11] | 4 (Precipitation was not observed in an addition amount of not less than 0.9 mmol.) |
|  |  | 95% | CCN(CC)c1ccc(N=C(C(C)=O)C(=O)Nc2ccccc2)c(C)c1 [C] |  |
|  |  | 82% | CCCCCCCCCCCCS(=O)(=O)NCCc1nc2c(=Cc3cc(Cl)c(O)c(Cl)c3)c(C(C)(C)C)nn2n1 [compound 47] | 4 (Precipitation was not observed in an addition amount of not less than 0.9 mmol.) |
|  |  | 18% | CCCCc1nnc2n1N=C(C(C)(C)C)C2=Nc1ccc(O)cc1 [A] | 2 (Slight precipitation was observed in an addition amount of not less than 0.3 to less than 0.6 mmol.) |
|  |  | 15% | CN1/C(=C\C=C\C2=[N+](C)c3ccccc3C2(C)C)C(C)(C)c2ccccc21 [F] |  |
|  |  | 77% | CCC(C)(C)c1ccc(OCC(=O)Nc2ccnc(-c3cnc4n3N=C(C(C)(C)C)C4=Nc3cc(Cl)c(O)c(Cl)c3)c2)c(C(C)(C)CC)c1 [compound 33] | 4 (Precipitation was not observed in an addition amount of not less than 0.9 mmol.) |
|  |  | 85% | CCN(CC)c1ccc(N=C2C=CC(=O)c3ccccc32)cc1 [E] |  |
|  |  | 90% | CCCCC(Oc1ccc(C(C)(C)CC)cc1C(C)(C)CC)C(=O)Nc1ccc2nc3n(c2c1)N=C(C)C3=Nc1cc(Cl)c(O)c(Cl)c1 (stereo not drawn) [compound 32] | 3 (Slight precipitation was observed in an addition amount of not less than 0.6 to less than 0.9 mmol.) |
